The text below walks through data of patent US8846745B2, “Use of an indazolemethoxyalkanoic acid for reducing triglyceride, cholesterol and glucose levels” (Aziende Chimiche Riunite Angelini Francesco A.C.R.A.F. …, priority 2006, dated 2014).

Experiment [1] has as its system obese Zucker rats (fa/fa). To be noted: standard rodent diet supplemented with 0.5% bindarit, blood at 6, 16, 28 and 40 weeks old. The protocol: The activity of bindarit was tested in an experimental model in rats.
The study was performed on rats 5 weeks old on arrival, of the Zucker strain homozygous for the “fa” allele (fa/fa), insulin-resistant, hyperinsulinaemic and obese, and on rats of the same age of the heterozygous Zucker control strain (fa/+), phenotypically normal, insulin-sensitive and slim.
At six weeks old, the obese Zucker rats were divided into two groups, one of which was fed with a standard rodent diet, and the other with a standard rodent diet supplemented with 0.5% bindarit.
The slim Zucker rats of the same age were used as controls and fed with a standard rodent diet.
Blood samples were taken from the animals periodically (at 6, 16, 28 and 40 weeks old) for enzymatic measurement of the circulating levels of triglycerides, cholesterol and glucose.

Another experiment concerns IL-12. To be noted: human monocytes, LPS 100 ng/ml for 4 hours, bindarit 300 μM tested as sodium salt. The procedure: The capacity of bindarit to inhibit the expression of IL-12 by human monocytes stimulated with lipopolysaccharide (LPS) was evaluated.
Human monocytes were used, which were isolated from healthy donors by centrifugation on a Ficoll gradient and purified by two successive centrifugation steps, followed by a step of isolation by means of an immunomagnetic system of negative cell separation (MACS, Miltenyi Biotech), using specific antibodies.
The cells were stimulated with LPS (100 ng/ml) for 4 hours in the presence or absence of bindarit (300 μM). The product was tested in the form of the sodium salt obtained by salification with equimolar sodium hydroxide and subsequent dilution in the medium used. The total RNA was extracted from cells using TRizol (Invitrogen Life Technologies) according to manufacturer's instructions, reverse-transcribed and prepared by GeneChip hybridization.

`CC(C)(OCc1nn(Cc2ccccc2)c2ccccc12)C(=O)O` [bindarit]: in experiment [1], the “circulating levels of cholesterol” value is on record as “significant reduction”, the “circulating levels of triglycerides” value is “significant reduction” and the “glycaemia (circulating glucose)” value was “significant reduction”. For the same compound, the “reduction of the levels of LPS-induced IL-12 specific mRNA” value in the experiment with IL-12 is reported as “about 100 fold”.
